Measurements reported in publication PMC5218480 (PLoS ONE, 2017).

System: MV-4-11 cells
Experiment: Gene expression microarray analysis (Affymetrix PrimeView) and GSEA
Type: cell-based, human
Design: RFU PODN (11730768_x_at) / Fold change /veh PODN (11730768_x_at) / RFU LINC00158 (11744669_a_at) / Fold change /veh LINC00158 (11744669_a_at) / RFU DUSP10 (11751237_a_at) / Fold change /veh DUSP10 (11751237_a_at) / RFU ID3 (11757404_x_at) / Fold change /veh ID3 (11757404_x_at) / RFU PLEKHG5 (11737974_s_at) / Fold change /veh PLEKHG5 (11737974_s_at) / RFU LRRC4B (11730491_at) / Fold change /veh LRRC4B (11730491_at) / RFU GIMAP4 (11747438_a_at) / Fold change /veh GIMAP4 (11747438_a_at) / RFU KRT8 (11758183_x_at) / Fold change /veh KRT8 (11758183_x_at) / RFU CNN1 (11734310_a_at) / Fold change /veh CNN1 (11734310_a_at) / RFU VPS37D (11726825_at) / Fold change /veh VPS37D (11726825_at) / RFU C10orf10 (11716522_x_at) / Fold change /veh C10orf10 (11716522_x_at) / RFU KIR2DL2 /// KIR2DL4 /// KIR2DL5A /// KIR2DL5B /// KIR2DS1 /// KIR2DS2 /// KIR2DS3 /// KIR2DS4 /// KIR3DL3 /// KIR3DL3 /// KIR3DS1 (11738374_at) / Fold change /veh KIR2DL2 /// KIR2DL4 /// KIR2DL5A /// KIR2DL5B /// KIR2DS1 /// KIR2DS2 /// KIR2DS3 /// KIR2DS4 /// KIR3DL3 /// KIR3DL3 /// KIR3DS1 (11738374_at) / RFU C1QL1 (11718748_at) / Fold change /veh C1QL1 (11718748_at) / RFU TMPRSS4 (11747572_a_at) / Fold change /veh TMPRSS4 (11747572_a_at) / RFU HAMP (11756126_x_at) / Fold change /veh HAMP (11756126_x_at) / RFU RNFT2 (11725882_a_at) / Fold change /veh RNFT2 (11725882_a_at) / RFU NR4A2 (11747474_a_at) / Fold change /veh NR4A2 (11747474_a_at) / RFU ABCC12 (11746883_a_at) / Fold change /veh ABCC12 (11746883_a_at) / RFU TMEM136 (11760407_x_at) / Fold change /veh TMEM136 (11760407_x_at) / RFU CLDN22 /// WWC2 (11732394_at) / Fold change /veh CLDN22 /// WWC2 (11732394_at) / RFU HLA-DPB1 (11760878_x_at) / Fold change /veh HLA-DPB1 (11760878_x_at) / RFU SPINT1 (11716480_a_at) / Fold change /veh SPINT1 (11716480_a_at) / RFU GAP43 (11754022_s_at) / Fold change /veh GAP43 (11754022_s_at) / RFU A4GNT (11735810_at) / Fold change /veh A4GNT (11735810_at) / RFU PRB3 (11715151_x_at) / Fold change /veh PRB3 (11715151_x_at) / RFU TUBB4B (11761932_at) / Fold change /veh TUBB4B (11761932_at) / RFU CAPN14 (11732068_a_at) / Fold change /veh CAPN14 (11732068_a_at) / RFU TMCC2 (11721928_a_at) / Fold change /veh TMCC2 (11721928_a_at) / RFU IRGQ (11745062_a_at) / Fold change /veh IRGQ (11745062_a_at) / RFU FAM174B (11720279_a_at) / Fold change /veh FAM174B (11720279_a_at) / RFU TMPRSS4 (11748680_a_at) / Fold change /veh TMPRSS4 (11748680_a_at) / RFU FAM212B (11763350_a_at) / Fold change /veh FAM212B (11763350_a_at) / RFU PLEKHG5 (11743358_a_at) / Fold change /veh PLEKHG5 (11743358_a_at) / RFU ZSCAN30 (11745921_a_at) / Fold change /veh ZSCAN30 (11745921_a_at) / RFU CMKLR1 (11741424_a_at) / Fold change /veh CMKLR1 (11741424_a_at) / RFU LOC101060620 /// MAPK8IP1 (11723275_at) / Fold change /veh LOC101060620 /// MAPK8IP1 (11723275_at) / RFU SPTSSB (11747773_x_at) / Fold change /veh SPTSSB (11747773_x_at) / RFU PRSS12 (11739890_at) / Fold change /veh PRSS12 (11739890_at) / RFU BIN1 (11741810_x_at) / Fold change /veh BIN1 (11741810_x_at) / RFU WNT11 (11732464_a_at) / Fold change /veh WNT11 (11732464_a_at) / RFU C10orf10 (11716521_a_at) / Fold change /veh C10orf10 (11716521_a_at) / RFU C5orf56 (11738089_at) / Fold change /veh C5orf56 (11738089_at) / RFU CYB561 (11721691_x_at) / Fold change /veh CYB561 (11721691_x_at) / RFU ANKRD19P (11752326_a_at) / Fold change /veh ANKRD19P (11752326_a_at) / RFU OR2T12 /// OR2T33 /// OR2T8 (11738714_s_at) / Fold change /veh OR2T12 /// OR2T33 /// OR2T8 (11738714_s_at) / RFU VCAN (11748164_a_at) / Fold change /veh VCAN (11748164_a_at) / RFU JSRP1 (11732532_at) / Fold change /veh JSRP1 (11732532_at) / RFU KRTAP10-11 (11738290_x_at) / Fold change /veh KRTAP10-11 (11738290_x_at) / RFU MYO3A (11730013_a_at) / Fold change /veh MYO3A (11730013_a_at) / RFU EBF3 (11725865_a_at) / Fold change /veh EBF3 (11725865_a_at) / RFU CAMK2N1 (11719241_x_at) / Fold change /veh CAMK2N1 (11719241_x_at) / RFU C5orf56 (11738088_a_at) / Fold change /veh C5orf56 (11738088_a_at) / RFU OLFML3 (11715873_a_at) / Fold change /veh OLFML3 (11715873_a_at) / RFU LOC100653217 /// NTM (11731650_a_at) / Fold change /veh LOC100653217 /// NTM (11731650_a_at) / RFU MAPK11 (11762145_a_at) / Fold change /veh MAPK11 (11762145_a_at) / RFU FIZ1 (11724087_x_at) / Fold change /veh FIZ1 (11724087_x_at) / RFU OASL (11726364_x_at) / Fold change /veh OASL (11726364_x_at) / RFU SOX15 (11748057_x_at) / Fold change /veh SOX15 (11748057_x_at) / RFU CD79A (11719716_a_at) / Fold change /veh CD79A (11719716_a_at) / RFU HIST1H1D (11736915_at) / Fold change /veh HIST1H1D (11736915_at) / RFU CASKIN2 (11723855_a_at) / Fold change /veh CASKIN2 (11723855_a_at) / RFU LOC730098 (11760151_x_at) / Fold change /veh LOC730098 (11760151_x_at) / RFU OR4N2 (11742367_at) / Fold change /veh OR4N2 (11742367_at) / RFU PRRT2 (11749266_a_at) / Fold change /veh PRRT2 (11749266_a_at) / RFU SNX32 (11753110_a_at) / Fold change /veh SNX32 (11753110_a_at) / RFU CDHR5 (11726645_a_at) / Fold change /veh CDHR5 (11726645_a_at) / RFU RCAN1 (11760418_a_at) / Fold change /veh RCAN1 (11760418_a_at) / RFU FAM167A (11723789_a_at) / Fold change /veh FAM167A (11723789_a_at) / RFU FAM26E (11764081_at) / Fold change /veh FAM26E (11764081_at) / RFU ISYNA1 (11749810_s_at) / Fold change /veh ISYNA1 (11749810_s_at) / RFU ACY1 (11761880_at) / Fold change /veh ACY1 (11761880_at) / RFU 11764098_at / Fold change /veh 11764098_at / RFU SAMD14 (11745864_x_at) / Fold change /veh SAMD14 (11745864_x_at) / RFU NPB (11741838_a_at) / Fold change /veh NPB (11741838_a_at) / RFU TMPRSS6 (11731388_a_at) / Fold change /veh TMPRSS6 (11731388_a_at) / RFU KRTAP10-2 (11738614_at) / Fold change /veh KRTAP10-2 (11738614_at) / RFU ARHGAP8 /// PRR5-ARHGAP8 (11727945_x_at) / Fold change /veh ARHGAP8 /// PRR5-ARHGAP8 (11727945_x_at) / RFU KRTAP5-7 /// NADSYN1 (11734609_at) / Fold change /veh KRTAP5-7 /// NADSYN1 (11734609_at) / RFU RASL12 (11751679_a_at) / Fold change /veh RASL12 (11751679_a_at) / RFU CDKN2B (11736163_a_at) / Fold change /veh CDKN2B (11736163_a_at) / RFU PRF1 (11729649_at) / Fold change /veh PRF1 (11729649_at) / RFU, ZNF638 /// ZNF638-IT1 / Fold change vs veh, ZNF638 /// ZNF638-IT1 / RFU, PANK3 / Fold change vs veh, PANK3 / RFU, SH3YL1 / Fold change vs veh, SH3YL1 / RFU, ZEB2 / Fold change vs veh, ZEB2 / RFU, NRIP1 / Fold change vs veh, NRIP1 / RFU, PTTG1IP / Fold change vs veh, PTTG1IP / RFU, CAPN2 / Fold change vs veh, CAPN2 / RFU, MED14 / Fold change vs veh, MED14 / RFU, SNORA58 / Fold change vs veh, SNORA58 / RFU, C1orf63 / Fold change vs veh, C1orf63 / RFU, LRRFIP1 / Fold change vs veh, LRRFIP1 / RFU, NDUFAF7 / Fold change vs veh, NDUFAF7 / RFU, SLC12A2 / Fold change vs veh, SLC12A2 / RFU, IBTK / Fold change vs veh, IBTK / RFU, ESF1 / Fold change vs veh, ESF1 / Fold change vs veh, TMEM50B / RFU, TAOK1 / Fold change vs veh, TAOK1 / RFU, ACBD3 / Fold change vs veh, ACBD3 / RFU, TMA16 / Fold change vs veh, TMA16 / RFU, RWDD3 / Fold change vs veh, RWDD3 / RFU, BCAT1 / Fold change vs veh, BCAT1 / RFU, EDEM3 / Fold change vs veh, EDEM3 / RFU, TMEM33 / Fold change vs veh, TMEM33 / RFU, WDR75 / Fold change vs veh, WDR75 / RFU, AHCTF1 / Fold change vs veh, AHCTF1 / RFU, TFRC / Fold change vs veh, TFRC / RFU, ZDHHC17 / Fold change vs veh, ZDHHC17 / RFU, NOM1 / Fold change vs veh, NOM1 / RFU, ARL8B / Fold change vs veh, ARL8B / RFU, ZBTB11 / Fold change vs veh, ZBTB11 / RFU, TAMM41 / Fold change vs veh, TAMM41 / RFU, KIAA1704 /// LOC100996395 / Fold change vs veh, KIAA1704 /// LOC100996395 / RFU, ING1 / Fold change vs veh, ING1 / RFU, TRMT61B / Fold change vs veh, TRMT61B / RFU, FUBP3 / Fold change vs veh, FUBP3 / RFU, TP53 / Fold change vs veh, TP53 / RFU, TNKS2 / Fold change vs veh, TNKS2 / RFU, ZFP14 / Fold change vs veh, ZFP14 / RFU, ACTR2 / Fold change vs veh, ACTR2 / RFU, PPP3R1 / Fold change vs veh, PPP3R1 / RFU, PIK3R1 / Fold change vs veh, PIK3R1 / RFU, HNRNPA1 / Fold change vs veh, HNRNPA1 / RFU, RNF170 / Fold change vs veh, RNF170 / RFU, ZNF28 / Fold change vs veh, ZNF28 / RFU, RNGTT / Fold change vs veh, RNGTT / RFU, OGT / Fold change vs veh, OGT / RFU, BRD1 / Fold change vs veh, BRD1 / RFU, MARS / Fold change vs veh, MARS / RFU, ZNF655 / Fold change vs veh, ZNF655 / RFU, FAHD1 / Fold change vs veh, FAHD1 / RFU, BDP1 / Fold change vs veh, BDP1 / RFU, LRRCC1 / Fold change vs veh, LRRCC1 / RFU, ARID1A / Fold change vs veh, ARID1A / RFU, ZNF146 / Fold change vs veh, ZNF146 / RFU, ZNF330 / Fold change vs veh, ZNF330 / RFU, GPN3 / Fold change vs veh, GPN3 / RFU, C9orf123 / Fold change vs veh, C9orf123 / RFU, N4BP2L2 / Fold change vs veh, N4BP2L2 / RFU, ARFIP1 / Fold change vs veh, ARFIP1 / RFU, FAM179B / Fold change vs veh, FAM179B / RFU, BCL10 / Fold change vs veh, BCL10 / RFU, UHRF1BP1L / Fold change vs veh, UHRF1BP1L / RFU, BET1 / Fold change vs veh, BET1 / RFU, CNOT2 / Fold change vs veh, CNOT2 / RFU, ZNF268 / Fold change vs veh, ZNF268 / Fold change vs veh, ZNF507 / RFU, DGCR2 / Fold change vs veh, DGCR2 / RFU, WDSUB1 / Fold change vs veh, WDSUB1 / Fold change vs veh, HSP90B1 /// MIR3652 / RFU, ADSS / Fold change vs veh, ADSS / RFU, GK / Fold change vs veh, GK / RFU, ZNF148 / Fold change vs veh, ZNF148 / RFU, TAF9 / Fold change vs veh, TAF9 / RFU, SLC1A5 / Fold change vs veh, SLC1A5 / RFU, SLMO2 / Fold change vs veh, SLMO2 / RFU, ABCC4 / Fold change vs veh, ABCC4 / RFU, LOC101060439 /// RAP1B / Fold change vs veh, LOC101060439 /// RAP1B / RFU, RFX7 / Fold change vs veh, RFX7 / RFU, GTPBP10 / Fold change vs veh, GTPBP10 / RFU, CNEP1R1 / Fold change vs veh, CNEP1R1 / RFU, BIVM-ERCC5 /// ERCC5 / Fold change vs veh, BIVM-ERCC5 /// ERCC5 / RFU, ILF3 / Fold change vs veh, ILF3 / RFU 11762660_at / Fold change /veh 11762660_at / RFU VCAN (11757783_s_at) / Fold change /veh VCAN (11757783_s_at) / RFU DDX43 (11728927_at) / Fold change /veh DDX43 (11728927_at) / RFU KRT8 (11758188_x_at) / Fold change /veh KRT8 (11758188_x_at) / RFU NKD1 (11759106_at) / Fold change /veh NKD1 (11759106_at) / RFU SRD5A1 (11742802_a_at) / Fold change /veh SRD5A1 (11742802_a_at) / RFU TPSAB1 /// TPSB2 (11721975_s_at) / Fold change /veh TPSAB1 /// TPSB2 (11721975_s_at) / RFU GSTM3 (11746129_a_at) / Fold change /veh GSTM3 (11746129_a_at) / RFU IL23R (11737362_x_at) / Fold change /veh IL23R (11737362_x_at) / RFU TMEM51 (11727254_a_at) / Fold change /veh TMEM51 (11727254_a_at) / RFU PIWIL2 (11732686_x_at) / Fold change /veh PIWIL2 (11732686_x_at) / RFU ORM1 (11744905_x_at) / Fold change /veh ORM1 (11744905_x_at) / RFU CCDC152 (11743942_at) / Fold change /veh CCDC152 (11743942_at) / RFU ECM1 (11717891_a_at) / Fold change /veh ECM1 (11717891_a_at) / RFU IL23R (11748794_a_at) / Fold change /veh IL23R (11748794_a_at) / RFU TNFAIP8L3 (11732012_x_at) / Fold change /veh TNFAIP8L3 (11732012_x_at) / RFU MBOAT4 (11741988_at) / Fold change /veh MBOAT4 (11741988_at) / RFU 11764193_at / Fold change /veh 11764193_at / RFU TMEM53 (11763286_at) / Fold change /veh TMEM53 (11763286_at) / RFU MAGEB2 (11727129_at) / Fold change /veh MAGEB2 (11727129_at) / RFU TMEM200A (11744735_a_at) / Fold change /veh TMEM200A (11744735_a_at) / RFU CCDC152 (11751479_a_at) / Fold change /veh CCDC152 (11751479_a_at) / RFU FAM211A (11726209_a_at) / Fold change /veh FAM211A (11726209_a_at) / RFU RGS16 (11746705_a_at) / Fold change /veh RGS16 (11746705_a_at) / RFU VCAN (11755009_s_at) / Fold change /veh VCAN (11755009_s_at) / RFU RHOB (11743442_s_at) / Fold change /veh RHOB (11743442_s_at) / RFU RGS16 (11720943_a_at) / Fold change /veh RGS16 (11720943_a_at) / RFU RGS16 (11720944_at) / Fold change /veh RGS16 (11720944_at) / RFU, VPS4B / Fold change vs veh, VPS4B / RFU, CREB1 / Fold change vs veh, CREB1 / RFU, DNAJC13 / Fold change vs veh, DNAJC13 / RFU, GNAQ / Fold change vs veh, GNAQ / RFU, CDK5R1 / Fold change vs veh, CDK5R1 / RFU, ZRANB3 / Fold change vs veh, ZRANB3 / RFU, CUL4A / Fold change vs veh, CUL4A / RFU, CCNY / Fold change vs veh, CCNY / RFU, UFL1 / Fold change vs veh, UFL1 / RFU, COG3 / Fold change vs veh, COG3 / RFU, DIAPH2 / Fold change vs veh, DIAPH2 / RFU, SKA2 / Fold change vs veh, SKA2 / RFU, AFF3 / Fold change vs veh, AFF3 / RFU, LMF1 / Fold change vs veh, LMF1 / RFU, IPO11 / Fold change vs veh, IPO11 / RFU, DFFB / Fold change vs veh, DFFB / RFU, FOXP1 / Fold change vs veh, FOXP1 / RFU, CARD8 / Fold change vs veh, CARD8 / RFU, STRN3 / Fold change vs veh, STRN3 / RFU, ADK / Fold change vs veh, ADK / RFU, RASSF2 / Fold change vs veh, RASSF2 / RFU, WIPF1 / Fold change vs veh, WIPF1 / RFU, LARP1B / Fold change vs veh, LARP1B / RFU, RASA1 / Fold change vs veh, RASA1 / RFU, RB1 / Fold change vs veh, RB1 / RFU, PPFIA1 / Fold change vs veh, PPFIA1 / RFU, MAT2A / Fold change vs veh, MAT2A / RFU, CCT5 / Fold change vs veh, CCT5 / RFU, WDR92 / Fold change vs veh, WDR92 / RFU, CUX1 / Fold change vs veh, CUX1 / RFU, TTC7A / Fold change vs veh, TTC7A / RFU, TMEM135 / Fold change vs veh, TMEM135 / RFU, DEPTOR / Fold change vs veh, DEPTOR / RFU, CPM / Fold change vs veh, CPM / RFU, DNAJB6 / Fold change vs veh, DNAJB6 / RFU, CACNA2D3 / Fold change vs veh, CACNA2D3 / RFU, DTX4 / Fold change vs veh, DTX4 / RFU, TFCP2 / Fold change vs veh, TFCP2 / RFU, GMCL1 /// GMCL1P1 / Fold change vs veh, GMCL1 /// GMCL1P1 / RFU, AEBP2 / Fold change vs veh, AEBP2 / RFU, SNHG1 /// SNORD22 /// SNORD25 /// SNORD26 /// SNORD27 /// SNORD28 /// SNORD29 /// SNORD31 / Fold change vs veh, SNHG1 /// SNORD22 /// SNORD25 /// SNORD26 /// SNORD27 /// SNORD28 /// SNORD29 /// SNORD31 / Fold change (Aza/veh), C12orf56 (ProbeSet 11735607_a_at) / Fold change (ACY-1035/veh), C12orf56 (ProbeSet 11735607_a_at) / Fold change (Aza/veh), FGFR1OP (ProbeSet 11751329_s_at) / Fold change (ACY-1035/veh), FGFR1OP (ProbeSet 11751329_s_at) / Fold change (Aza/veh), VPS36 (ProbeSet 11739960_a_at) / Fold change (ACY-1035/veh), VPS36 (ProbeSet 11739960_a_at) / RFU SYPL1 (11715823_x_at) / Fold change /veh SYPL1 (11715823_x_at) / RFU IGFBP7 (11715501_s_at) / Fold change /veh IGFBP7 (11715501_s_at) / RFU REEP3 (11722064_at) / Fold change /veh REEP3 (11722064_at) / RFU IGLL1 (11728026_x_at) / Fold change /veh IGLL1 (11728026_x_at): dose or concentration left out as unconfirmed
Details: MV-4-11 cells, 48 hours

## Nc1ncn([C@@H]2O[C@H](CO)[C@@H](O)[C@H]2O)c(=O)n1 [azacitidine]
  Fold change /veh HIST1H1D (11736915_at): 1.16
